Test [1] has as its system A549. The test can be described thus: Cytotoxicity against human A549 cells after 48 hrs by trypan blue exclusion assay. It counts as functional, cell-based. The settings on record: A549, 48 h.
Test [2] has as its system A549. The test is described as follows: Cytotoxicity against human A549 cells after 48 hrs by MTT assay. It is filed as functional, cell-based. The settings on record: A549, 48 h. In general terms: Formazan colour is commonly taken as a measure of viable cells.
For test [3], the system named is A549. The test can be described thus: Cytotoxicity against human A549 cells after 48 hrs by LDH release assay. It counts as functional, cell-based. The settings on record: A549, 48 h. Background: Release of lactate dehydrogenase indicates damage to the cell membrane.
Test [4] has as its system HeLa. The test can be described thus: Cytotoxicity against human HeLa cells after 48 hrs by trypan blue exclusion assay. It is filed as functional, cell-based.
Test [5] relates to HeLa. The test is described as follows: Cytotoxicity against human HeLa cells after 48 hrs by LDH release assay. It is filed as functional, cell-based.
Test [6] has as its system MCF7. The test is described as follows: Cytotoxicity against human MCF7 cells after 48 hrs by trypan blue exclusion assay. It counts as functional, cell-based. Particulars: MCF7, 48 h.
In test [7] the test system is MCF7. The test is described as follows: Cytotoxicity against human MCF7 cells after 48 hrs by MTT assay. The settings on record: MCF7, 48 h. It counts as functional, cell-based.
In test [8] the test system is MCF7. The test is described as follows: Cytotoxicity against human MCF7 cells after 48 hrs by LDH release assay. It is filed as functional, cell-based. The settings on record: MCF7, 48 h.
Test [9] concerns NIH3T3. The test can be described thus: Cytotoxicity against mouse NIH/3T3 cells after 48 hrs by trypan blue exclusion assay. It counts as cell-based. The settings on record: NIH3T3, 48 h.
The test system of test [10] is NIH3T3. The test is described as follows: Cytotoxicity against mouse NIH/3T3 cells after 48 hrs by MTT assay. It is filed as cell-based. The settings on record: NIH3T3, 48 h.
Test [11] has as its system NIH3T3. The test is described as follows: Cytotoxicity against mouse NIH/3T3 cells after 48 hrs by LDH release assay. It counts as cell-based. Particulars: NIH3T3, 48 h.
In test [12] the test system is HeLa. The test can be described thus: Cytotoxicity against human HeLa cells after 48 hrs by MTT assay. It counts as functional, cell-based.

What is called IC50 is the concentration that inhibits the measured activity by half. A high value points to weaker potency in that assay. For the compound `Cn1cnc(C(=O)NNC(=O)COc2c(F)cc(C(=O)c3ccc(Cl)cc3)cc2Cl)c1`, the IC50 with A549 [1] was determined as 47.3 µM; in the test with A549 [2], 49.1 µM; in the test with A549 [3] it was 45.8 µM; with HeLa [4] it was 51.6 µM; with HeLa [5], 54.5 µM; with MCF7 [6], 47.3 µM. Also, the IC50 stood at 43.1 µM in the test with MCF7 [7]; 44.4 µM with MCF7 [8]; 90.9 µM in the test on NIH3T3 [9]; 87.8 µM in the test with NIH3T3 [10]; 89.3 µM in the test with NIH3T3 [11].

Consider `O=C(COc1c(F)cc(C(=O)c2ccc(Cl)cc2)cc1Cl)NNC(=O)c1ccc(=O)oc1`, for which the IC50 in the test on A549 [1] worked out at 86.7 µM; with A549 [2], 88.8 µM; in the test on A549 [3], 84.9 µM; with HeLa [4] it was 89.6 µM; in the test on HeLa [12], 87.1 µM; in the test with HeLa [5], 85.1 µM. The IC50 in the test with MCF7 [6] was determined as 90.6 µM; in the test with MCF7 [7], 86.2 µM; in the test with MCF7 [8], 83.8 µM; in the test on NIH3T3 [9], 79.3 µM; in the test on NIH3T3 [10], 77.6 µM; with NIH3T3 [11] it was 78.6 µM.

As for `Cc1ccc(C(=O)c2cc(F)c(OCC(=O)NNC(=O)c3ccc(=O)oc3)c(Cl)c2)cc1`, the IC50 in the test on A549 [1] turned out to be 19.6 µM; in the test on A549 [2], 22.6 µM; in the test with A549 [3], 21.4 µM; in the test on HeLa [4] it was 26.2 µM; in the test on HeLa [12], 20.9 µM; in the test with HeLa [5] it was 26.9 µM. Also, the IC50 with MCF7 [6] was determined as 29.1 µM; in the test with MCF7 [7], 23.6 µM; with MCF7 [8] it was 24.2 µM; with NIH3T3 [9], 30.8 µM; with NIH3T3 [10], 28.9 µM; in the test on NIH3T3 [11] it was 32.1 µM.

On to `Cn1cnc(C(=O)NNC(=O)COc2c(F)cc(C(=O)c3ccc(F)cc3)cc2Cl)c1`, for which the IC50 with A549 [1] was 39.6 µM; in the test on A549 [2], 40.1 µM; with A549 [3] it was 40.7 µM; with HeLa [4], 39.9 µM; with HeLa [12], 42.2 µM; in the test with HeLa [5], 40.9 µM. Moreover, the IC50 in the test with MCF7 [6] was 44.6 µM; in the test with MCF7 [7] it was 45.1 µM; with MCF7 [8] it was 44.6 µM; with NIH3T3 [9], 94.2 µM; in the test with NIH3T3 [10], 89.2 µM; in the test with NIH3T3 [11], 94.4 µM.

The values above are taken from ChEMBL document CHEMBL4257485, “The critical role of novel benzophenone analogs on tumor growth inhibition targeting angiogenesis and apoptosis” (Medchemcomm, 2018).
